Test results published in patent US12440443B2, “Nano-emulsion of CBFβ-RUNX1 inhibitor for ocular drug deliver” (Massachusetts Eye and Ear Infirmary, priority 2017, dated 2025).

Assay: Solubility behaviour of Ro5-3335 in aqueous solution
Type: physicochemical
Source text: The invention provides a solution to many problems and/or drawbacks of earlier ocular formulations and features a nano-emulsion composition, e.g., a nano-emulsion comprising a core binding factor β (CBFβ)-Runt-Related Transcription Factor 1 (RUNX1) (CBFβ-RUNX1) inhibitor. […] With our emulsion, we have devised a composition to encapsulate the drug in a nanonsphere, which allows for suspension in an aqueous solution, and increases availability of the drug, and also improves penetration of ocular tissues.

O=C1CN=C(c2ccc[nH]2)c2cc(Cl)ccc2N1 [Ro5-3335, 7-chloro-1,3-dihydro-5-(1h-pyrrol-2y-yl)-2H-1,4-benzodiazepin-2-one]
solubility in aqueous solution: insoluble in aqueous solution
